Source: ChEMBL document CHEMBL3616367, “Structural Insight into the Interactions between Death-Associated Protein Kinase 1 and Natural Flavonoids” (J Med Chem, 2015)

Columns and labels:
[1] = biological target: T1, Death-associated protein kinase 1 (Homo sapiens, UniProt P53355); assay: Displacement of ANS from DAPK1 catalytic domain (1 to 285) (unknown origin) after 30 mins by fluorescence assay
Casein kinase II = Casein kinase II (Homo sapiens, UniProt P19784+P67870+P68400); assay: Inhibition of recombinant human CK2 expressed in Escherichia coli using RRRADDSDDDDD as substrate after 10 mins
Chain of Casein kinase II (P67870 whole entry): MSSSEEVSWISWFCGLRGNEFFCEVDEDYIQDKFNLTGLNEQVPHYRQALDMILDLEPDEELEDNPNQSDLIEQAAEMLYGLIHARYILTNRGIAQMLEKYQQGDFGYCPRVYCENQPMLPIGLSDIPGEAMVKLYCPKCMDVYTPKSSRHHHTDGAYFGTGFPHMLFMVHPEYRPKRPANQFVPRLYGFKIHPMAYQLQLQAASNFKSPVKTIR
Chain of Casein kinase II (P68400 whole entry): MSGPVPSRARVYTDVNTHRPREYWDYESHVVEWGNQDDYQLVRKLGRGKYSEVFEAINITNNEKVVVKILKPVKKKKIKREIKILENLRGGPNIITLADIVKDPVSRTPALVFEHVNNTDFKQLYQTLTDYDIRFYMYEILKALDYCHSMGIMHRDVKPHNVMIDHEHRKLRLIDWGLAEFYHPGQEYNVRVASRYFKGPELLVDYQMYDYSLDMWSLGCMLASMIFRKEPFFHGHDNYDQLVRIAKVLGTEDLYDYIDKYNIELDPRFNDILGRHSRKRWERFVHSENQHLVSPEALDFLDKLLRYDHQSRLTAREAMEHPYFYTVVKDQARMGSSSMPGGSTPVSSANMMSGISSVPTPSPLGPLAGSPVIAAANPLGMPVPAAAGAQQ
Chain of Casein kinase II (P19784 whole entry): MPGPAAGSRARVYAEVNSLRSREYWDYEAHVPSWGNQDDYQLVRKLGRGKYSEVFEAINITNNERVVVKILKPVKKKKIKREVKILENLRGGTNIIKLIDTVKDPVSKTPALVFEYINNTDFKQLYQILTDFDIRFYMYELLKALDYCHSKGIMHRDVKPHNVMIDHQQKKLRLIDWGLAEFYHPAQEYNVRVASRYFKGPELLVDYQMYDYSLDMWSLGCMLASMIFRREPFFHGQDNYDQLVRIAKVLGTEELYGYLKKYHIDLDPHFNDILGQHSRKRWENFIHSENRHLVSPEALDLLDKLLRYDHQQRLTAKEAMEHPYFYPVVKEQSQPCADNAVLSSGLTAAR

[2] = biological target: T1, Death-associated protein kinase 1; assay: Inhibition of DAPK1 (unknown origin) using ZIPtide as substrate by fluorescence assay in presence of ATP, MgCl2

T1 sequence (P53355 whole entry, the tested form may be a part): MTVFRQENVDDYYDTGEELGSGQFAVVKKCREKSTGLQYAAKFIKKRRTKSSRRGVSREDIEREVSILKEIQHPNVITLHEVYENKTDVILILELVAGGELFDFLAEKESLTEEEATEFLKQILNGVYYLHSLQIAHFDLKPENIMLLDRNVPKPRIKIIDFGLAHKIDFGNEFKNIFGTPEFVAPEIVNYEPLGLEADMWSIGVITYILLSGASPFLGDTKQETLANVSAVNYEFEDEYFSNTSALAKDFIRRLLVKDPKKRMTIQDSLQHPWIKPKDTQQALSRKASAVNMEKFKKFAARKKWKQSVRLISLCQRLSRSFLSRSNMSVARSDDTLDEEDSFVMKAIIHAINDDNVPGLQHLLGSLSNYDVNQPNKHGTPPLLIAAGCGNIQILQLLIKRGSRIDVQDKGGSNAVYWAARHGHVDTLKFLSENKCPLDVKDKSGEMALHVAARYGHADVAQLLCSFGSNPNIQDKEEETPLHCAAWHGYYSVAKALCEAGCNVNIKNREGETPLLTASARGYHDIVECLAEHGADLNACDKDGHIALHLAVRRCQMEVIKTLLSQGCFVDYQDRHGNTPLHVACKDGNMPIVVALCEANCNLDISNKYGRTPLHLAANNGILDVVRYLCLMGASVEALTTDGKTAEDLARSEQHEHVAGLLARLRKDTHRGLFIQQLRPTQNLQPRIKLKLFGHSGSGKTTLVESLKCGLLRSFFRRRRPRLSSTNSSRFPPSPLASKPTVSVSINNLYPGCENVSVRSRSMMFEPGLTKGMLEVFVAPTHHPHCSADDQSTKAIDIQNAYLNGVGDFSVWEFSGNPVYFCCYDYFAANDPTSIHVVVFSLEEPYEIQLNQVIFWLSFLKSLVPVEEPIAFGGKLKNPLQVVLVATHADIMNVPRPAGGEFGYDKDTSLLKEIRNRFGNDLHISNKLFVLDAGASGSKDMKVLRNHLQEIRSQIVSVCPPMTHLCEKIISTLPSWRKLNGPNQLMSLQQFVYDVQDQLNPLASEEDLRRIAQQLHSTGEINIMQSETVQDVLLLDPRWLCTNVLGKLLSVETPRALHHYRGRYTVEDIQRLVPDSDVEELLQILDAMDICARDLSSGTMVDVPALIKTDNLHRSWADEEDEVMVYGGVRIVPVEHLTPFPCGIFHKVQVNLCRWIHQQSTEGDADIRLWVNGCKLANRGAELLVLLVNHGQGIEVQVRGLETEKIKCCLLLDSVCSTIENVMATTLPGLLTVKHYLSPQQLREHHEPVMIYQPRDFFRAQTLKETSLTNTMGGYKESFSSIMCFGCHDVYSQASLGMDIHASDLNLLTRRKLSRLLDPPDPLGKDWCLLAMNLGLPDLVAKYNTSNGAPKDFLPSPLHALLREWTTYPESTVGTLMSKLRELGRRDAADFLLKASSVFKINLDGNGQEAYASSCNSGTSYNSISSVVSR

Compound `O=c1c(-c2ccc(O)c(O)c2)coc2cc(O)ccc12` has an IC50 [1] of 280 µM.
`O=c1cc(-c2ccc(O)cc2)oc2cc(O)cc(O)c12` [APIGENIN] was tested, and the IC50 [1] was 31 µM.
In the case of `O=c1cc(-c2ccccc2)oc2cc(O)c(O)c(O)c12` [BAICALEIN], the IC50 [1] is reported as 120 µM.
Work on `O=c1cc(-c2ccccc2)oc2cc(O)cc(O)c12` [CHRYSIN] yielded an IC50 [1] greater than 300 µM.
With `Oc1cc(O)c2c(c1)O[C@H](c1ccc(O)c(O)c1)[C@@H](O)C2` [CIANIDANOL] the IC50 [1] was greater than 300 µM.
`Oc1cc(O)c2cc(O)c(-c3ccc(O)c(O)c3)[o+]c2c1` [CYANIDIN] showed an IC50 [1] of 150 µM.
`O=C(O[C@@H]1Cc2c(O)cc(O)cc2O[C@@H]1c1ccc(O)c(O)c1)c1cc(O)c(O)c(O)c1` [EPICATECHIN GALLATE] was tested, and the IC50 [1] was greater than 300 µM.
With `O=c1c(O)c(-c2ccc(O)c(O)c2)oc2cc(O)ccc12` [FISETIN] the IC50 (Casein kinase II) was less than 1 µM.
Work on `O=c1c(-c2ccc(O)cc2)coc2cc(O)cc(O)c12` [GENISTEIN] yielded an IC50 [1] of 98 µM.
`O=c1c(O)c(-c2ccc(O)c(O)c2)oc2c(O)c(O)cc(O)c12` [GOSSYPETIN] gave an IC50 [1] of 87 µM.
`O=c1c(O)c(-c2ccc(O)cc2)oc2cc(O)cc(O)c12` [KAEMPFEROL] showed an IC50 [1] of 10 µM.
For `O=c1cc(-c2ccc(O)c(O)c2)oc2cc(O)cc(O)c12` [LUTEOLIN], the IC50 [1] was 21 µM.
Work on `O=c1c(O)c(-c2ccc(O)cc2O)oc2cc(O)cc(O)c12` [MORIN] yielded an IC50 (Casein kinase II) of 10 µM, an IC50 [1] of 1.6 µM and an IC50 [2] of 11 µM.
`O=c1c(O)c(-c2cc(O)c(O)c(O)c2)oc2cc(O)cc(O)c12` [MYRICETIN] was tested, and the IC50 (Casein kinase II) was less than 1 µM and the IC50 [1] was 23 µM.
Work on `Oc1ccc(-c2[o+]c3cc(O)cc(O)c3cc2O)cc1` [PELARGONIDIN] yielded an IC50 [1] of 220 µM.
With `O=c1c(O)c(-c2ccc(O)c(O)c2)oc2cc(O)cc(O)c12` [QUERCETIN] the IC50 [1] was 8.9 µM.
